Data as given in patent publication US8114850B2, “Antiproliferative activity of G-rich oligonucleotides and method of using same to bind to nucleolin” (Advanced Cancer Therapeutics, LLC, priority 1999, dated 2012).

Key:
[1] = test system: advanced, metastatic RCC (renal-cell carcinoma); test: Phase 1 study, RCC patients; format: in vivo, human
Procedure: (§1) A Phase 1, open label, non-randomized dose escalation study of SEQ ID NO:12 was conducted on 17 human individuals with various advanced malignancies. […] After these 17 individuals had received treatment, only individuals with RCC (renal-cell carcinoma) or non-small-cell lung cancer (NSCLC) were enrolled in the clinical trial to obtain data for more homogenous patient populations and thereby enhance the quality of the results.
Following these findings, the trial was extended to include additional individuals (“patients”) with RCC (renal-cell carcinoma) or non-small-cell lung cancer. All of said individuals had progressive, metastatic cancers upon entry to the study. It should be noted that none of the individuals had received chemotherapy, radiotherapy or any investigational agent for cancer within the 4 weeks prior to entry to the study or 6 weeks prior for nitrosourea or mitomycin C. All individuals enrolled in the study were evaluable for toxicity and response and had measurable disease, i.e. able to be measured accurately in one or more dimension(s). Participants of the study were recruited at one site: the University of Louisville, James Brown Cancer Center, in Louisville, Ky., USA. The study was conducted in accordance with Good Clinical Practices and the Declaration of Helsinki. Institutional Review Board approval and informed patient consent were obtained before the study began.
(§2) The SEQ ID NO:12 aptamer was administered to individuals as a continuous intravenous infusion. All individuals received one or two cycles of treatment. The dose escalation protocol provided a division of the subjects into cohorts of 3 in sequential order. If no individuals in a cohort experienced DLT within […] of treatment, the dosage was escalated to the next level. The dosage was increased up to 10 mg/kg/day for 7 days in the first 17 individuals and increased up to 40 mg/kg/day for 7 days in the RCC/NSCLC extension. The original starting dose was about 1 mg/kg/day for 4 days for both sets of individuals.
If no subject in the first cohort experienced DLT within 14 days of treatment, the dose for the next cohort was escalated to the next level. […] For this study, DLT was identified as grade 3-4 non-hematological toxicity, grade 4 hematological toxicity that persisted for 3 or more days, grade 4 febrile neutropenia, or grade 4 thrombocytopenia with bleeding. Toxicity was graded according to the National Cancer Institute Common Terminology for Adverse Events (“NCI-CTCAE”) version 3.0.
Dose escalation was accomplished by doubling until a biological effect was noted (i.e., by development of NCI-CTCAE grade 2 toxicity), at which point the dose was escalated using a modified Fibonacci design (dose increments to 1.6 times the pervious dose level). The maximum dose for the study was 40 mg/kg/day.
(§3) Baseline evaluations included medical history, 12-lead electrocardiogram, safety assessments and tumor measurements within 1 week of the start of the study. Individuals were monitored in the hospital during infusion of the SEQ ID NO:12 aptamer (days 1-8) and then evaluated subsequently on days 15, 29 and 58.
Efficacy was assessed by tumor measurements and radiological evaluation at baseline ([…] to the start of the study), at day 29 and day 58.
Tumor measurements were conducted using photographs (skin lesions), chest X-rays, CT scans, magnetic resonance imaging (MRI) and ultrasound. The assessments of tumor measurements were conducted using the Response Evaluation Criteria in Solid Tumors (RECIST) guidelines. See Arbuck et al., (2000) Journal Nat'l Cancer Inst., 92: 205-16. All tumor measurements were taken in metric notation using a ruler or caliper.
As a preliminary note, tumor response was evaluated using RECIST guidelines and categorized as complete response (CR), partial response (PR), stable disease (SD) or progressive disease (PD). […]

Phase 1 study, toxicity = format: in vivo, human; conditions: doses up to 40 mg/kg/day for up to 7 days, continuous i.v. infusion
Procedure: as §2
If no subject in the first cohort experienced DLT within 14 days of treatment, the dose for the next cohort was escalated to the next level. […] For this study, DLT was identified as grade 3-4 non-hematological toxicity, grade 4 hematological toxicity that persisted for 3 or more days, grade 4 febrile neutropenia, or grade 4 thrombocytopenia with bleeding. […]
as §3

tumor cells = test: In-vitro experiments with SEQ ID NO:12 in tumor cells; format: cell-based
Excerpt: SEQ ID NO: 12, a G-rich oligonucleotide (GRO) aptamer comprising a single-strand oligonucleotide of 26 bases, was selected for the study. […] Preclinical data indicates potential of SEQ ID NO: 12 against a wide variety of solid and hematologic malignancies.

[2] = biological target: T1, G-rich oligonucleotide binding protein / nucleolin (Homo sapiens, UniProt P19338); test: Protein binding, summary statements (EMSA); conditions: characterization of the aptamer
T1 construct: endogenous in cells; MDA-MB-231)
Excerpt: By G-rich oligonucleotide (GRO) it is meant that the oligonucleotides consist of 4-100 nucleotides (preferably 10-30 nucleotides) with DNA, RNA, 2′-O-methyl, phosphorothioate or other chemically similar backbones. Their sequences contain one or more GGT motifs. The oligonucleotides have antiproliferative activity against cells and bind to GRO binding protein and/or nucleolin.
Additionally, the present invention provides a method for selecting oligonucleotides that bind to nucleolin. The method utilizes an electrophoretic mobility shift assay (EMSA), as described below, to screen for oligonucleotides that bind strongly to nucleolin and which, therefore, would be expected, according to the present invention, to have anti-proliferative activity. Oligonucleotides to be screened as potential antiproliferative agents are labeled and then incubated with nuclear extracts in the absence or presence of unlabeled competitor oligonucleotide and are allowed to react. The reaction mixtures are then electrophoresed and mobility shifts and/or bond intensity can be used to identify those oligonucleotides which have bound to the specific protein.
Alternatively, unlabeled compounds to be screened are incubated with nuclear extracts in the presence of labeled oligonucleotide (for example 5′-TTAGGGTTAGGGTTAGGG TTAGGG) (SEQ ID NO: 20) and binding is assessed by a decrease in the intensity of the shifted band, as in FIG. 6B.

Stability in serum = format: in vitro ADME
Procedure: The effects of four G-rich phosphodiester oligonucleotides (GROs) on the growth of tumor cells in culture were tested. These oligonucleotides consisted entirely of deoxyguanosine and thymidine and contained at least two contiguous guanosines. For increased stability to serum nucleases, oligonucleotides were modified at the 3′-terminus with a propylamino group. This modification protects the oligonucleotides from degradation in serum containing medium for at least twenty-four hours.

[3] = test system: non-small-cell lung cancer (NSCLC); test: Phase 1 study, NSCLC patients; format: in vivo, human; conditions: RECIST
Procedure: as §1
Following these findings, the trial was extended to include additional individuals (“patients”) with RCC (renal-cell carcinoma) or non-small-cell lung cancer. All of said individuals had progressive, metastatic cancers upon entry to the study. […] All individuals enrolled in the study were evaluable for toxicity and response and had measurable disease, i.e. able to be measured accurately in one or more dimension(s). […]
as §3
Efficacy was assessed by tumor measurements and radiological evaluation at baseline ([…] to the start of the study), at day 29 and day 58. […]

T1 sequence (P19338 whole entry): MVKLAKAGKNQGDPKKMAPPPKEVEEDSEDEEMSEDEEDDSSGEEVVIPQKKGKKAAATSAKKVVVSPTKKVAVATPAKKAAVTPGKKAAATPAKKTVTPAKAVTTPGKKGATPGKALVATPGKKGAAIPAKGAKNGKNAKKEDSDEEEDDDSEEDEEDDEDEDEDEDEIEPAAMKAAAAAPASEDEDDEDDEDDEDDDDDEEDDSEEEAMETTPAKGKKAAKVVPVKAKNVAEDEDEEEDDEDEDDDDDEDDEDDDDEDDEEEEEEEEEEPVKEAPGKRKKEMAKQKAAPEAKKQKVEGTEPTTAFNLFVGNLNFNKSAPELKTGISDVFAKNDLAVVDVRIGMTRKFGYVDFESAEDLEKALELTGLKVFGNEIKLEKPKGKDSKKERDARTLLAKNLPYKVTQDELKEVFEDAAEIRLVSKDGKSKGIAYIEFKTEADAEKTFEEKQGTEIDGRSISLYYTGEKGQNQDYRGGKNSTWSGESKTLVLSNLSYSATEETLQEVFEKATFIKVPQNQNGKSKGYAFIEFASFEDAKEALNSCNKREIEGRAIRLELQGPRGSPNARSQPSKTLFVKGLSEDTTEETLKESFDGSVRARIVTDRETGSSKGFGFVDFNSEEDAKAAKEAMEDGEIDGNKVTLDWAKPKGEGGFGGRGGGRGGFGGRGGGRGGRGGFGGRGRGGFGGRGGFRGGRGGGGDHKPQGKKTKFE

Substance: 5′-GGTGGTGGTGGTTGTGGTGG TGGTGG-3′ [SEQ ID NO:12]
- metastasis, first RCC responder ([1]; 18 months after treatment): single brain metastasis
- disease status, first RCC responder ([1]; 26 months after one seven-day infusion at 10 mg/kg): no evidence of disease
- clinical benefit (CR+PR+SD) ([1]; RCC patients, RECIST): 75%
- response rate (CR+PR) ([1]; RCC patients, continuous i.v. infusion, up to 40 mg/kg/day for up to 7 days, RECIST): 17%
- complete response ([1]; RCC subjects, RECIST): 8.4%
- partial response ([1]; RCC subjects, RECIST): 8.4%
- stable disease for the duration of the study ([1]; RCC subjects, RECIST): 58%
- decrease in the sum of greatest linear dimensions of target lesions from baseline ([1]; second RCC responder, two seven-day infusions at 22 mg/kg): about 70%
- tolerability / toxicity (Phase 1 study, toxicity): well tolerated with no serious toxicity of any type related to drug administration
- anti-proliferative response in tumor cells (tumor cells): strong anti-proliferative response
- specificity of binding [2]: specificity for nucleolin
- stability in serum (Stability in serum): extremely stable and resistant to degradation by serum enzymes
- stable disease for the duration of the study [3]: 40%
